Results: patent US8778871B2 (Takeda Pharmaceutical Company Limited, priority 2004, dated 2014)
Starred links: 1 amine or outer side, 2 acyl side, 3 side chain; linkers in the order of their positions; H or OH if unused. Non-standard residues stand in square brackets, D forms with d. Residues, ends and D or L forms follow the SMILES beside them. X3 = O=C(CNC(=S)[C@H](Cc1ccccc1)N[*:1])[*:2]; X8 = O=C([C@H](Cc1ccc2ccccc2n1)N[*:1])[*:2]; Arg(Me) = CNC(=N)NCCC[C@H](N)C(=O)O; Bta = N[C@@H](Cc1csc2ccccc12)C(=O)O; Cha = N[C@@H](CC1CCCCC1)C(=O)O; azaGly = NNC(=O)O

Biological target: T1, hOT7T175 (Homo sapiens, UniProt Q969F8, L364H)
T1 construct: expressed in transfected cells
T1 sequence (Q969F8 whole entry L364H): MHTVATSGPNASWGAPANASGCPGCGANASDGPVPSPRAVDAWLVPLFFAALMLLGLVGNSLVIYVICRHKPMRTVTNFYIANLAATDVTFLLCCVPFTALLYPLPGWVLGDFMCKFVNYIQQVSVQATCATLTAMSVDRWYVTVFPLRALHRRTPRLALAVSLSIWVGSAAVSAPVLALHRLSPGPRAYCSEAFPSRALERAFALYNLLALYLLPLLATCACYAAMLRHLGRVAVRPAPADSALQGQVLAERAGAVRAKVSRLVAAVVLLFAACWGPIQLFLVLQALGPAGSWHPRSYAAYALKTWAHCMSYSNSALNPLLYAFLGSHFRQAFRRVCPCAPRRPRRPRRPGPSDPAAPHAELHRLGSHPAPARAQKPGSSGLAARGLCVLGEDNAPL
Experiment: Intracellular Ca ion level-increasing activity using FLIPR (180 seconds; specific activity to Metastin (1-54))
Assay type: cell-based
Conditions: hOT7T175/CHO, relative to Metastin (1-54) = 1

Row | Structure (SMILES) | Specific Act. (intracellular Ca ion level-increasing activity, specific activity to Metastin (1-54))
1 | CC(C)C[C@H](NC(=O)CNC(=O)[C@H](Cc1ccc(F)cc1)NC(=O)[C@H](CO)NC(=O)[C@H](CC(N)=O)NC(=O)[C@H](Cc1c[nH]c2ccccc12)NC(=O)[C@H](CC(N)=O)NC(=O)[C@@H](N)Cc1ccc(O)cc1)C(=O)N[C@@H](CCCNC(=N)N)C(=O)N[C@@H](Cc1ccccc1)C(N)=O [Compound No. 154, Tyr-Asn-Trp-Asn-Ser-Phe(4F)-Gly-Leu-Arg-Phe-NH2] | 5
2 | CC(C)C[C@H](NC(=O)CNC[C@H](Cc1ccccc1)NC(=O)[C@H](CO)NC(=O)[C@H](CC(N)=O)NC(=O)[C@H](Cc1c[nH]c2ccccc12)NC(=O)[C@H](CC(N)=O)NC(=O)[C@@H](N)Cc1ccc(O)cc1)C(=O)N[C@@H](CCCNC(=N)N)C(=O)N[C@@H](Cc1ccccc1)C(N)=O [Compound No. 163, Tyr-Asn-Trp-Asn-Ser-PheΨ(CH2NH)Gly-Leu-Arg-Phe-NH2] | 1
3 | CC(C)C[C@H](NC(=O)CNC(=S)[C@H](Cc1ccccc1)NC(=O)[C@H](CO)NC(=O)[C@H](CC(N)=O)NC(=O)[C@H](Cc1c[nH]c2ccccc12)NC(=O)[C@H](CC(N)=O)NC(=O)[C@@H](N)Cc1ccc(O)cc1)C(=O)N[C@@H](CCCNC(=N)N)C(=O)N[C@@H](Cc1ccccc1)C(N)=O [Compound No. 166, Tyr-Asn-Trp-Asn-Ser-PheΨ(CSNH)Gly-Leu-Arg-Phe-NH2] (H-YNWNS[X3]LRF-NH2) | 5
4 | CNC(=N)NCCC[C@H](NC(=O)[C@H](CC(C)C)NC(=O)CNC(=O)[C@H](Cc1ccccc1)NC(=O)[C@H](CO)NC(=O)[C@H](CC(N)=O)NC(=O)[C@H](C)NC(=O)[C@H](CC(N)=O)NC(=O)[C@H](N)Cc1ccc(O)cc1)C(=O)N[C@@H](Cc1ccccc1)C(N)=O [Compound No. 169] (H-[dY]NANSFGL[Arg(Me)]F-NH2) | 2
5 | CNC(=N)NCCC[C@H](NC(=O)[C@H](CC(C)C)NC(=O)CNC(=O)[C@H](Cc1ccccc1)NC(=O)[C@H](CO)NC(=O)[C@H](CC(N)=O)NC(=O)[C@H](CO)NC(=O)[C@H](CC(N)=O)NC(=O)[C@H](N)Cc1ccc(O)cc1)C(=O)N[C@@H](Cc1ccccc1)C(N)=O [Compound No. 170] (H-[dY]NSNSFGL[Arg(Me)]F-NH2) | 1
6 | CNC(=N)NCCC[C@H](NC(=O)[C@H](CC(C)C)NC(=O)CNC(=O)[C@H](Cc1ccccc1)NC(=O)[C@H](CO)NC(=O)[C@H](CC(N)=O)NC(=O)[C@H](CC1CCCCC1)NC(=O)[C@H](CC(N)=O)NC(=O)[C@H](N)Cc1ccc(O)cc1)C(=O)N[C@@H](Cc1ccccc1)C(N)=O [Compound No. 171, D-Tyr-Asn-Cha-Asn-Ser-Phe-Gly-Leu-Arg(Me)-Phe-NH2] (H-[dY]N[Cha]NSFGL[Arg(Me)]F-NH2) | 10
7 | CNC(=N)NCCC[C@H](NC(=O)[C@H](CC(C)C)NC(=O)CNC(=O)[C@H](CC1CCCCC1)NC(=O)[C@H](CO)NC(=O)[C@H](CC(N)=O)NC(=O)[C@H](CC1CCCCC1)NC(=O)[C@H](CC(N)=O)NC(=O)[C@H](N)Cc1ccc(O)cc1)C(=O)N[C@@H](Cc1c[nH]c2ccccc12)C(N)=O [Compound No. 182, D-Tyr-Asn-Cha-Asn-Ser-Cha-Gly-Leu-Arg(Me)-Trp-NH2] (H-[dY]N[Cha]NS[Cha]GL[Arg(Me)]W-NH2) | 5
8 | CC(C)C[C@H](NC(=O)CNC(=O)[C@H](Cc1ccccc1)NC(=O)[C@H](CO)NC(=O)[C@H](CC(N)=O)NC(=O)[C@H](Cc1c[nH]c2ccccc12)NC(=O)[C@H](CC(N)=O)NC(=O)[C@@H](N)Cc1ccc(O)cc1)C(=O)N[C@@H](CCCNC(=N)N)C(=O)N[C@@H](Cc1csc2ccccc12)C(N)=O [Compound No. 189] (H-YNWNSFGLR[Bta]-NH2) | 10
9 | CNC(=N)NCCC[C@H](NC(=O)[C@H](CC(C)C)NC(=O)NNC(=O)[C@H](Cc1ccccc1)NC(=O)[C@H](CO)NC(=O)[C@H](CC(N)=O)NC(=O)[C@H](CC1CCCCC1)NC(=O)[C@H](CC(N)=O)NC(=O)[C@H](N)Cc1ccc(O)cc1)C(=O)N[C@@H](Cc1ccccc1)C(N)=O [Compound No. 190, D-Tyr-Asn-Cha-Asn-Ser-Phe-AzaGly-Leu-Arg(Me)-Phe-NH2] (H-[dY]N[Cha]NSF[azaGly]L[Arg(Me)]F-NH2) | 10
10 | CCNC(=N)NCCC[C@H](NC(=O)[C@H](CC(C)C)NC(=O)CNC(=O)[C@H](Cc1ccccc1)NC(=O)[C@H](CO)NC(=O)[C@H](CC(N)=O)NC(=O)[C@H](Cc1c[nH]c2ccccc12)NC(=O)[C@H](CC(N)=O)NC(=O)[C@H](N)Cc1ccc(O)cc1)C(=O)N[C@@H](Cc1ccccc1)C(N)=O [Compound No. 192] | 1
11 | CCCNC(=N)NCCC[C@H](NC(=O)[C@H](CC(C)C)NC(=O)CNC(=O)[C@H](Cc1ccccc1)NC(=O)[C@H](CO)NC(=O)[C@H](CC(N)=O)NC(=O)[C@H](Cc1c[nH]c2ccccc12)NC(=O)[C@H](CC(N)=O)NC(=O)[C@H](N)Cc1ccc(O)cc1)C(=O)N[C@@H](Cc1ccccc1)C(N)=O [Compound No. 193] | ½
12 | CC(C)C[C@H](NC(=O)CNC(=O)[C@H](Cc1ccccc1)NC(=O)[C@H](CO)NC(=O)[C@H](CC(N)=O)NC(=O)[C@H](Cc1c[nH]c2ccccc12)NC(=O)[C@H](CC(N)=O)NC(=O)[C@@H](N)Cc1ccc(O)cc1)C(=O)N[C@@H](CCCNC(=N)N)C(=O)N[C@@H](Cc1cccc(F)c1)C(N)=O [Compound No. 197] | 10
13 | CC(C)C[C@H](NC(=O)CNC(=O)[C@H](Cc1ccccc1)NC(=O)[C@H](CO)NC(=O)[C@H](CC(N)=O)NC(=O)[C@H](Cc1c[nH]c2ccccc12)NC(=O)[C@H](CC(N)=O)NC(=O)[C@@H](N)Cc1ccc(O)cc1)C(=O)N[C@@H](CCCNC(=N)N)C(=O)N[C@@H](Cc1ccc(F)c(F)c1)C(N)=O [Compound No. 198] | 10
14 | CC(C)C[C@H](NC(=O)CNC(=O)[C@H](Cc1ccccc1)NC(=O)[C@H](CO)NC(=O)[C@H](CC(N)=O)NC(=O)[C@H](Cc1c[nH]c2ccccc12)NC(=O)[C@H](CC(N)=O)NC(=O)[C@@H](N)Cc1ccc(O)cc1)C(=O)N[C@@H](CCCNC(=N)N)C(=O)N[C@@H](Cc1ccc(Cl)c(Cl)c1)C(N)=O [Compound No. 199] | 3
15 | CC(C)C[C@H](NC(=O)CNC(=O)[C@H](Cc1ccccc1)NC(=O)[C@H](CO)NC(=O)[C@H](CC(N)=O)NC(=O)[C@H](Cc1c[nH]c2ccccc12)NC(=O)[C@H](CC(N)=O)NC(=O)[C@@H](N)Cc1ccc(O)cc1)C(=O)N[C@@H](CCCNC(=N)N)C(=O)N[C@@H](Cc1cccc(C(F)(F)F)c1)C(N)=O [Compound No. 200] | 10
16 | CC(C)C[C@H](NC(=O)CNC(=O)[C@H](Cc1ccccc1)NC(=O)[C@H](CO)NC(=O)[C@H](CC(N)=O)NC(=O)[C@H](Cc1c[nH]c2ccccc12)NC(=O)[C@H](CC(N)=O)NC(=O)[C@@H](N)Cc1ccc(O)cc1)C(=O)N[C@@H](CCCNC(=N)N)C(=O)N[C@@H](Cc1ccc2ccccc2n1)C(N)=O [Compound No. 201] (H-YNWNSFGLR[X8]-NH2) | 1
17 | CNC(=N)NCCC[C@H](NC(=O)[C@H](CC(C)C)NC(=O)CNC(=O)[C@H](CC1CCCCC1)NC(=O)[C@H](CO)NC(=O)[C@H](CC(N)=O)NC(=O)[C@H](Cc1c[nH]c2ccccc12)NC(=O)[C@H](CC(N)=O)NC(=O)[C@H](N)Cc1ccc(O)cc1)C(=O)N[C@@H](Cc1ccccc1)C(N)=O [Compound No. 203, D-Tyr-Asn-Trp-Asn-Ser-Cha-Gly-Leu-Arg(Me)-Phe-NH2] (H-[dY]NWNS[Cha]GL[Arg(Me)]F-NH2) | 10
18 | CNC(=N)NCCC[C@H](NC(=O)[C@H](CC(C)C)NC(=O)[C@H](C)NC(=O)[C@H](Cc1ccccc1)NC(=O)[C@H](CO)NC(=O)[C@H](CC(N)=O)NC(=O)[C@H](Cc1c[nH]c2ccccc12)NC(=O)[C@H](CC(N)=O)NC(=O)[C@H](N)Cc1ccc(O)cc1)C(=O)N[C@@H](Cc1ccccc1)C(N)=O [Compound No. 204] (H-[dY]NWNSFAL[Arg(Me)]F-NH2) | 5
19 | CNC(=N)NCCC[C@H](NC(=O)[C@H](CC(C)C)NC(=O)CNC(=O)[C@H](Cc1ccccc1)NC(=O)[C@H](CO)NC(=O)[C@H](CC(N)=O)NC(=O)[C@@H](NC(=O)[C@H](CC(N)=O)NC(=O)[C@H](N)Cc1ccc(O)cc1)[C@@H](C)O)C(=O)N[C@@H](Cc1ccccc1)C(N)=O [Compound No. 205] (H-[dY]NTNSFGL[Arg(Me)]F-NH2) | 10
20 | CNC(=N)NCCC[C@H](NC(=O)[C@@H](NC(=O)CNC(=O)[C@H](Cc1ccccc1)NC(=O)[C@H](CO)NC(=O)[C@H](CC(N)=O)NC(=O)[C@H](Cc1c[nH]c2ccccc12)NC(=O)[C@H](CC(N)=O)NC(=O)[C@H](N)Cc1ccc(O)cc1)C(C)C)C(=O)N[C@@H](Cc1ccccc1)C(N)=O [Compound No. 213] (H-[dY]NWNSFGV[Arg(Me)]F-NH2) | 2
21 | CNC(=N)NCCC[C@H](NC(=O)[C@H](CC(C)C)NC(=O)CNC(=O)[C@H](Cc1ccccc1)NC(=O)[C@H](CO)NC(=O)[C@H](CC(N)=O)NC(=O)[C@H](Cc1c[nH]c2ccccc12)NC(=O)[C@H](CCC(N)=O)NC(=O)[C@H](N)Cc1ccc(O)cc1)C(=O)N[C@@H](Cc1ccccc1)C(N)=O [Compound No. 214] (H-[dY]QWNSFGL[Arg(Me)]F-NH2) | 10
22 | CNC(=N)NCCC[C@H](NC(=O)[C@H](CC(C)C)NC(=O)CNC(=O)[C@H](Cc1ccccc1)NC(=O)[C@H](CO)NC(=O)[C@H](CC(N)=O)NC(=O)[C@H](Cc1c[nH]c2ccccc12)NC(=O)[C@@H](NC(=O)[C@H](N)Cc1ccc(O)cc1)[C@@H](C)O)C(=O)N[C@@H](Cc1ccccc1)C(N)=O [Compound No. 215] (H-[dY]TWNSFGL[Arg(Me)]F-NH2) | 10
